Source: PMC4965013, “Open Source Drug Discovery with the Malaria Box Compound Collection for Neglected Diseases and Beyond” (PLoS Pathogens, 2016)

Legend:
[1] = system: P. falciparum; experiment: EC50 listed in S2 Table Metabolomics (used to set the concentration tested); format: cell-based; details: Plasmodium falciparum; EC50 used for Factor_XEC50 in metabolomics; read-out: EC50_nM
[2] = system: P. falciparum 3D7 trophozoites; experiment: Metabolomic fingerprint profiling LC-MS; format: cell-based, Plasmodium falciparum; design: UDP-D-glucose / ADP-D-glucose: unit not given here; details: for Acetyllysine / N-acetyl-L-ornithine / N-carbamoyl-L-aspartate / NADPH / dAMP / dCMP / dTDP / dTMP / dTTP / dihydroorotate / orotate / DLH / DLS/SDL/SID / PD / PEE / PVNF / 3-phosphoglycerate / ADP-D-glucose / ATP / CDP / D-sedoheptulose-1/7-phosphate / FAD / GMP / NAD+ / NADP+ / Octoluse Bisphosphate / Pyroglutamic acid / UDP-D-glucose / UDP-D-glucuronate / UDP-N-acetyl-glucosamine / UDP / UMP / UTP / a-ketoglutarate / citrate/isocitrate / cytidine / dATP / dGMP/AMP / fumarate / glucose-1/6-phosphate / glycerate / guanine / guanosine / hypoxanthine / indole / inosine / nicotinate / ornithine / phosphoenolpyruvate / pyruvate / ribose-phosphate / sarcosine/alanine / sn-glycerol-3-phosphate / succinate/methylmalonic acid / uridine / xanthosine: S2 Table Metabolomics; for Acetyllysine: metabolite Acetyllysine; for N-acetyl-L-ornithine: metabolite N-acetyl-L-ornithine; for N-carbamoyl-L-aspartate: metabolite N-carbamoyl-L-aspartate; for NADPH: metabolite NADPH; for dAMP: metabolite dAMP; for dCMP: metabolite dCMP; for dTDP: metabolite dTDP; for dTMP: metabolite dTMP; for dTTP: metabolite dTTP; for dihydroorotate: metabolite dihydroorotate; for orotate: metabolite orotate; for DLH: peptide DLH; for DLS/SDL/SID: peptide DLS/SDL/SID; for PD: peptide PD; for PEE: peptide PEE; for PVNF: peptide PVNF; for 3-phosphoglycerate: metabolite 3-phosphoglycerate; for ADP-D-glucose: metabolite ADP-D-glucose; for ATP: metabolite ATP; for CDP: metabolite CDP; for CDP / D-sedoheptulose-1/7-phosphate / GMP / Octoluse Bisphosphate / UDP / UMP / UTP / citrate/isocitrate / dGMP/AMP / fumarate / glucose-1/6-phosphate / glycerate / guanine / guanosine / inosine / pyruvate / sarcosine/alanine / succinate/methylmalonic acid / uridine / xanthosine: change in metabolite level after compound treatment; for D-sedoheptulose-1/7-phosphate: metabolite D-sedoheptulose-1/7-phosphate; for FAD: metabolite FAD; for GMP: metabolite GMP; for NAD+: metabolite NAD+; for NADP+: metabolite NADP+; for Octoluse Bisphosphate: metabolite Octoluse Bisphosphate; for Pyroglutamic acid: metabolite Pyroglutamic acid; for UDP-D-glucose: metabolite UDP-D-glucose; for UDP-D-glucuronate: metabolite UDP-D-glucuronate; for UDP-N-acetyl-glucosamine: metabolite UDP-N-acetyl-glucosamine; for UDP: metabolite UDP; for UMP: metabolite UMP; for UTP: metabolite UTP; for a-ketoglutarate: metabolite a-ketoglutarate; for citrate/isocitrate: metabolite citrate/isocitrate; for cytidine: metabolite cytidine; for dATP: metabolite dATP; for dGMP/AMP: metabolite dGMP/AMP; for fumarate: metabolite fumarate; for glucose-1/6-phosphate: metabolite glucose-1/6-phosphate; for glycerate: metabolite glycerate; for guanine: metabolite guanine; for guanosine: metabolite guanosine; for hypoxanthine: metabolite hypoxanthine; for indole: metabolite indole; for inosine: metabolite inosine; for 2_3-Diphosphoglyceric acid / 4-phosphopantothenate / 6-phospho-D-gluconate / FMN / IMP / Pyrophosphate / Sedoheptoluse bisphosphate / cyclic-AMP / glutathione disulfide / lactate / myo-inositol: metabolite level change after treatment; for nicotinate: metabolite nicotinate; for ornithine: metabolite ornithine; for phosphoenolpyruvate: metabolite phosphoenolpyruvate; for pyruvate: metabolite pyruvate; for ribose-phosphate: metabolite ribose-phosphate; for sarcosine/alanine: metabolite sarcosine/alanine; for sn-glycerol-3-phosphate: metabolite sn-glycerol-3-phosphate; for succinate/methylmalonic acid: metabolite succinate/methylmalonic acid; for uridine: metabolite uridine; for xanthosine: metabolite xanthosine

CC1CN(C(=O)c2sc3ccccc3c2Cl)CC(C)O1 (stereo not shown) [MMV020492]
EC50 [1]: 25.5 nM
Acetyllysine [2]: -0.0147
N-acetyl-L-ornithine [2]: -0.05191
N-carbamoyl-L-aspartate [2]: 0.1461
NADPH [2]: 1.076
dAMP [2]: 0.05557
dCMP [2]: 0.1257
dTDP [2]: 0.2505
dTMP [2]: 0.3742
dTTP [2]: 0.08279
dihydroorotate [2]: 0.2809
orotate [2]: 0.03682
DLH [2]: 0.1005
DLS/SDL/SID [2]: 0.08855
PD [2]: 0.1297
PEE [2]: 0.04353
PVNF [2]: 0.1047
3-phosphoglycerate [2]: 0.09132
ADP-D-glucose [2]: 0.03984
ATP [2]: 0.0738
CDP [2]: 0.1835
D-sedoheptulose-1/7-phosphate [2]: 0.08985
FAD [2]: 0.03625
GMP [2]: 0.3386
NAD+ [2]: 0.04927
NADP+ [2]: 0.004356
Octoluse Bisphosphate [2]: 0.06954
Pyroglutamic acid [2]: 0.3822
UDP-D-glucose [2]: 0.04537
UDP-D-glucuronate [2]: -0.02953
UDP-N-acetyl-glucosamine [2]: 0.08846
UDP [2]: 0.2013
UMP [2]: 0.2191
UTP [2]: 0.01852
a-ketoglutarate [2]: 0.02481
citrate/isocitrate [2]: -0.02888
cytidine [2]: -0.05556
dATP [2]: -0.009271
dGMP/AMP [2]: 0.09845
fumarate [2]: 0.08721
glucose-1/6-phosphate [2]: -0.03526
glycerate [2]: 0.2426
guanine [2]: 0.0471
guanosine [2]: 0.114
hypoxanthine [2]: -0.07881
indole [2]: 0.1523
inosine [2]: -0.03708
2_3-Diphosphoglyceric acid [2]: 0.1949
4-phosphopantothenate [2]: 0.1246
6-phospho-D-gluconate [2]: 0.07439
FMN [2]: 0.2041
IMP [2]: -0.02839
Pyrophosphate [2]: 0.1402
Sedoheptoluse bisphosphate [2]: 0.05967
cyclic-AMP [2]: 0.07392
glutathione disulfide [2]: 0.1287
lactate [2]: 0.06153
myo-inositol [2]: 0.04445
nicotinate [2]: 0.03208
ornithine [2]: -0.1593
phosphoenolpyruvate [2]: 0.09247
pyruvate [2]: -0.02843
ribose-phosphate [2]: -0.3604
sarcosine/alanine [2]: 0.3511
sn-glycerol-3-phosphate [2]: 0.4063
succinate/methylmalonic acid [2]: 0.003908
uridine [2]: 0.1407
xanthosine [2]: 0.3607

CC1CCN(Cc2ccc(NC(=O)c3cc4ccc5cccnc5c4[nH]3)cc2)CC1 [MMV020549]
EC50 [1]: 274 nM
Acetyllysine [2]: -2.641
N-acetyl-L-ornithine [2]: -2.126
N-carbamoyl-L-aspartate [2]: 2.423
NADPH [2]: 1.7547
dAMP [2]: 0.4295
dCMP [2]: 0.8562
dTDP [2]: 0.3381
dTMP [2]: 0.4292
dTTP [2]: 0.08993
dihydroorotate [2]: 2.255
orotate [2]: 1.187
DLH [2]: -1.428
DLS/SDL/SID [2]: -2.953
PD [2]: -0.7061
PEE [2]: -0.9939
PVNF [2]: -1.512
3-phosphoglycerate [2]: -0.1099
ADP-D-glucose [2]: 0.08948
ATP [2]: -0.07943
CDP [2]: 0.4826
D-sedoheptulose-1/7-phosphate [2]: 0.04396
FAD [2]: -0.01225
GMP [2]: -0.01756
NAD+ [2]: -0.1491
NADP+ [2]: 0.1203
Octoluse Bisphosphate [2]: -0.3788
Pyroglutamic acid [2]: -0.1503
UDP-D-glucose [2]: -0.0815
UDP-D-glucuronate [2]: -0.1055
UDP-N-acetyl-glucosamine [2]: -0.09535
UDP [2]: 0.6579
UMP [2]: 0.21
UTP [2]: 0.1832
a-ketoglutarate [2]: -0.128
citrate/isocitrate [2]: -0.1069
cytidine [2]: -0.1996
dATP [2]: 0.1916
dGMP/AMP [2]: 0.3048
fumarate [2]: 0.06488
glucose-1/6-phosphate [2]: -0.4724
glycerate [2]: -0.06488
guanine [2]: 0.773
guanosine [2]: 1.397
hypoxanthine [2]: -0.1958
indole [2]: -0.3017
inosine [2]: -0.6136
2_3-Diphosphoglyceric acid [2]: -0.02531
4-phosphopantothenate [2]: 0.1058
6-phospho-D-gluconate [2]: -0.03173
FMN [2]: 0.1472
IMP [2]: 0.1864
Pyrophosphate [2]: 0.03595
Sedoheptoluse bisphosphate [2]: 0.04232
cyclic-AMP [2]: -0.09542
glutathione disulfide [2]: -0.2786
lactate [2]: -0.1188
myo-inositol [2]: -0.1919
nicotinate [2]: 0.02078
ornithine [2]: 0.04846
phosphoenolpyruvate [2]: -0.09349
pyruvate [2]: -0.1796
ribose-phosphate [2]: -0.1444
sarcosine/alanine [2]: -0.25
sn-glycerol-3-phosphate [2]: -0.2777
succinate/methylmalonic acid [2]: -0.1252
uridine [2]: 0.147
xanthosine [2]: -0.8804
